Source: PMC3696112 (PLoS ONE, 2013)

Biological target: T1, Ech (enoyl-CoA hydratase/aldolase) (Streptomyces sp. V-1, UniProt S5LPF1)
T1 construct: ATCC 39116
T1 sequence (S5LPF1 1-287): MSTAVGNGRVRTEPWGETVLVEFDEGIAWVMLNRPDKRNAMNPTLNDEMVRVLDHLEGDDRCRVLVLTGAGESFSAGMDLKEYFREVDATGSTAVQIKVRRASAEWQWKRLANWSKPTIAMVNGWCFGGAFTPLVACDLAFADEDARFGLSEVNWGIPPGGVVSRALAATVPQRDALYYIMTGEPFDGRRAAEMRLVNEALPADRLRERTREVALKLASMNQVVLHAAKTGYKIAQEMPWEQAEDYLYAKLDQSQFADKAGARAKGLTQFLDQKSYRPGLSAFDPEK
Assay: coupled assay with purified Fcs, GC analysis (qualitative)
Type: biochemical
Details: feruloyl-CoA made in situ from 0.7 mM ferulic acid by Fcs; 2 mM ATP, 0.4 mM CoA, 2.5 mM MgCl2, 100 mM potassium phosphate pH 7.0

## COc1cc(C=O)ccc1O [vanillin, 4-hydroxy-3-methoxybenzaldehyde]
  coupled assay with purified Fcs, GC analysis (qualitative): production of vanillin, catalyzed by Ech, were observed and analyzed qualitatively from the GC spectrum
